Measured values reported in US20240164376A1, “SYNERGISTIC PLANT GROWTH STIMULANT COMPOSITIONS OF POTASSIUM MONO/DI-FORMATE WITH NITROGENOUS COMPOUNDS” (FERTIS INDIA PVT LTD, priority 2021, published 2024).

Tested on: paddy grains
Test: Protein content in the paddy grains
Format: in vivo

Structure (SMILES) | % Of Protein [%]
CNC(=O)NC [Dimethyl urea] | 0.0081
O=C(Nc1ccccc1)Nc1ccccc1 [Diphenyl urea] | 0.0089
NC(=O)N(C=O)C=O [N,Ndiformyl urea (NN-DFU), N,Ndiformyl urea] | 0.0112
O=CO.O=C[O-].[K+] [Potassium diformate] | 0.0093
O=C[O-].[K+] [Potassium formate] | 0.0091
NC(N)=O [Urea] | 0.0063
